# Measured values as given in patent publication US12570697B2, “Cyclic peptide useful in the treatment of cancer” (Syntherix Limited, priority 2019, dated 2026).
# Ends that are not written are not given here.
# Experiments:
# [1] = system: RT112 bladder cancer cell line; settings: WO 2016/020437; cited from earlier work
# MRC-5 cells = settings: in vitro; WO 2016/020437; cited from earlier work
# NCI-H460 cells [2] = assay: viability assay of CLIP cyclised peptides on NCI-H460 cells (Example 3, Table 2); type: cell-based, human; settings: with and without Nanocin-PRO
# Experimental: (§1) The following protocol was used: • 1) NCI-H460 cells were grown in Ham's F12 media supplemented with 10% FBS. • 2) Cells were harvested and seeded into 96-well plates at 500 cells per well. • 3) Peptides were diluted 1:2 from DMSO stock solutions to generate a 9-point dose range from a top concentration of 300 μM. Final DMSO concentration was constant at 1% (v/v). • 4) In line with the supplied Nanocin-PRO protocol, diluted peptides were incubated with Nanocin-PRO in media for 20 minutes prior to addition to cells. Nanocin-PRO was used at a final assay concentration of 0.2 μl per well. • 5) Cells were grown in the presence of peptide for 96 hours at 37° C., 5% CO2 in a humidified atmosphere. • 6) After 96 h, Alamar blue 10% (v/v) was added, incubated for a further 4 h and fluorescent product detected using a BMG FLUOstar plate reader. • 7) Media only background readings were subtracted before data was analysed using a 4-parameter logistic equation in GraphPad Prism.
# Viability assays of the CLIP cyclised peptides were performed to examine the effect of four HILRa clipped peptides on the viability of NCIH460 cells (up to three isomers for each of the peptides). […] Results for HILRa 16A, 16B, 16C and HILRa 17A, 17B and 17C are depicted in FIG. 2.
# Assays were performed in the presence and absence of the peptide transfection reagent Nanocin-PRO.
# NCI-H460 cells [3] = assay: NCI-H460 cell viability assay, glycosylated versus unglycosylated peptide (Example 4); type: cell-based, human; settings: 0.2 μl Nanocin-Pro per well
# Experimental: The inventor next undertook testing to determine whether the cytotoxicity of the peptides of the invention could be increased by glycosylation of the peptides. NCI-H460 cell viability assays were performed to compare the effect of a glycosylated clipped peptide (HILRa-Glu-01) versus the un-glycosylated version (HILRa-CL-17, HILRa-CL-17 was used in this study as a 1:1:1 mix of the three isomers HILRa-CL-17A, HILRa-CL-17B and HILRa-CL-17C).
# Assays were performed in the presence and absence of the peptide transfection agent Nanocin-Pro.
# as §1, with “HILRa peptides” for “Peptides”, “[…] Nanocin-Pro” for “Final DMSO concentration was constant at 1% (v/v). • 4) In line with the supplied Nanocin-PRO protocol, diluted peptides were incubated with Nanocin-PRO in media for 20 minutes prior to addition to cells. Nanocin-PRO”
Substance,IC50 [1],lethality in MRC-5 cells (MRC-5 cells),cytotoxic activity against NCIH460 cells (in words) (NCI-H460 cells [2]),cytotoxic activity against NCIH460 cells (in words) (NCI-H460 cells [2]; listed as HILRa-CL17),activity in the presence of Nanocin-PRO compared to its absence (NCI-H460 cells [3])
PRGPRPVWWRRWWRRWW [HILR-PRO-25],10 µM,without lethality,,,
Ac-C[Dac]R[Sar][Nap]R[Nap]C-NH2 [HILRa-CL-17],,,greater potency than HILRa-CL-15,showed activity,much higher activity
